pIC50: −log10 of the molar value.
Target: T1, ABCG2 (breast cancer resistance protein) (Homo sapiens, UniProt Q9UNQ0)
T1 sequence (Q9UNQ0 1-655): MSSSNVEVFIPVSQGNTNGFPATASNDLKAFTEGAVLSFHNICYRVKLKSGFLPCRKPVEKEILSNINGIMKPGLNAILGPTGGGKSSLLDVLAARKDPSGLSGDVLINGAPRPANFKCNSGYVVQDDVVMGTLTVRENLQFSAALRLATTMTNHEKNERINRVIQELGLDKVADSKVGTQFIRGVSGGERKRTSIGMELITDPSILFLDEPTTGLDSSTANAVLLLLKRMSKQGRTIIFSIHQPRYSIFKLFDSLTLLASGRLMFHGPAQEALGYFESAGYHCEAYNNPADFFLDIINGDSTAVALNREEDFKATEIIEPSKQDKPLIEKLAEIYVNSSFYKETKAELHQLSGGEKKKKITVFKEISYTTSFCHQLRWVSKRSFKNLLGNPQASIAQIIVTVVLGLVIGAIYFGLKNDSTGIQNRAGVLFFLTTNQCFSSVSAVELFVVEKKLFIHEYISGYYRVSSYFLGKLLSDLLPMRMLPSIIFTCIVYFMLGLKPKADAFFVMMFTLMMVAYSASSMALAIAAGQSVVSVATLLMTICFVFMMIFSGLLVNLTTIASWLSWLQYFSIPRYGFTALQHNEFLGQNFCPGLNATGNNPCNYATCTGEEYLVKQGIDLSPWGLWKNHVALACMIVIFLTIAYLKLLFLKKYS
Experiment: competition of […]IAAP photoaffinity labeling
Type: binding

- pIC50: 7.05
SMILES: CN1CCC(CNc2ccc3ncc(-c4cccc(OC(F)(F)F)c4)n3n2)CC1 [SGI-1776]

From publication PMC3821043 (Biochemical pharmacology, 2012)
